Columns and labels:
[1] = Detergency solubility of carboxylic acid coatings in KOH based system (Example 1); type: physicochemical; settings: acidic coating, materials dissolved in DMAC
Experimental: (§1) Water solubility is tested and thermal resistance is indicated for each material.

[2] = Water solubility of carboxylic acid coatings (Example 1); settings: acidic coating; materials dissolved in n,n-dimethylacetamide (DMAC)
Experimental: as §1

| Detergency (KOH based system) [1] | Water solubility (observed) [2] | SMILES |
| --- | --- | --- |
| Partial | Limited/no | O=C(O)/C=C/C(=O)O [Fumaric Acid] |
| Yes | Limited/no | O=C(O)c1cccc(C(=O)O)c1 [Isophthalic acid] |
| Yes | Limited/no | O=C(O)c1ccc(O)cc1 [P-hydroxybenzoic acid] |
| Yes |  | O=C(O)c1ccccc1C(=O)O [Phthalic Acid] |
| Partial |  | O=C(O)c1ccc(C(=O)O)cc1 [Terephthalic acid] |
